Measurements reported in patent publication US20200064357A1, “METHODS FOR DETERMINING AND MONITORING GASTROINTESTINAL INFLAMMATION” (Protagonist Therapeutics, Inc., priority 2016, published 2020).

Test system: Sprague-Dawley rats
Assay: Biomarkers in colon of TNBS-induced acute colitis rats (Example E1)
Format: in vivo, rat
Conditions: protein by ELISA, vs vehicle treated controls, Peptide 993 65 mg/kg/day; for IL-22 level in colon / MPO level in colon: Peptide 980 37 mg/kg/day
Excerpt: The effect of treatment with peptide inhibitors of IL23R on inflammatory markers associated with IL23 signaling was examined in a rat model of acute colitis. Acute colitis was induced in Sprague-Dawley rats by a single intra-rectal instillation of 2,4,6-Trinitrobenzenesulfonic acid (TNBS) followed by efficacy analysis at day seven. Pharmacodynamic (PD) biomarkers were examined using enzyme-linked immunosorbent assay (ELISA), quantitative reverse transcription polymerase chain reaction, or immunohistochemistry analysis of colon, feces, or serum samples obtained from colitic rats treated with Peptide 993, Peptide 1185, or Peptide 980.
Acute colitis was induced by providing 7-week-old female Sprague-Dawley rats with various dosages of 64 mg/kg or 48 mg/kg of TNBS in 50% ethanol (TNBS/ethanol) administered intrarectally at Day 0. Peptide inhibitors were administered orally two or three times a day at various dosages and were provided in drinking water at various dosages, for 8 days starting approximately 24 hours (Day −1) prior TNBS inoculation.
Levels of a number of inflammatory biomarkers were examined in the colons. The distal colon tissue samples, designated for protein expression analysis, were flash frozen after collection. For protein extraction, the samples were thawed, weighed and homogenized in the extraction buffer (PBS pH 7.2 supplemented with Protease Inhibitors, 3× volume:weight). The homogenates were centrifuged at 13 krpm at 4° C. for 15 minutes, a total of two times to remove the debris. The supernatants were saved in multiple aliquots in −80° C. and subsequently used for protein expression analysis on ELISA. The total protein in each sample was quantified using BCA assay. MPO, IL-10, IL-6, IL-17A and IL-22 biomarker protein expression in the distal colon samples was analyzed using commercially available rat ELISA kits.

Compound	IL-17A level in colon	IL-22 level in colon	MPO level in colon
CC(=O)NCCCCC(NC(=O)C1(NC(=O)C(Cc2ccc3ccccc3c2)NC(=O)C(Cc2ccc(OCCN)cc2)NC(=O)C2NC(=O)C(CCC(N)=O)NC(=O)C(Cc3c[nH]c4ccccc34)NC(=O)C(C(C)O)NC(=O)C(CC(N)=O)NC(=O)C(NC(C)=O)C(C)(C)SSC2(C)C)CCOCC1)C(=O)NC(CC(N)=O)C(=O)NC(CC(N)=O)C(N)=O (centres unmarked) [Peptide 1185, Ac-cyclo[[Pen]-NTWQ-[Pen]]-[Phe[4-(2-aminoethoxy)]]-[2-Nal]-[4-amino-4-carboxy-tetrahydropyran]-[Lys(Ac)]-NN-NH2]	did not significantly reduce	did not significantly reduce	did not significantly reduce
Ac-cyclo[[Abu]-QTWQC]-[Phe[4-(2-aminoethoxy)]]-[2-Nal]-[4-amino-4-carboxy-tetrahydropyran]-ENN-NH2 [Peptide 980]		reduced	reduced
